Assay results: PubChem BioAssay (NCI)
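Where inhibition never reached the appropriate level, the endpoint shown equals the highest concentration tested. Otherwise, values were interpolated linearly from a five-concentration, 48-hour dose response in 96-well plates. TGI: total growth inhibition.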

Key:
Test in all cases: DTP human tumour cell line panel, 48 h
IGROV1 ovarian = system: IGROV1 ovarian
RXF 393 renal = system: RXF 393 renal
MCF7 breast = system: MCF7 breast
PC-3 prostate = system: PC-3 prostate
KM12 colon = system: KM12 colon
TK-10 renal = system: TK-10 renal
MDA-N = system: MDA-N
OVCAR-8 ovarian = system: OVCAR-8 ovarian
MALME-3M melanoma = system: MALME-3M melanoma
SN12C renal = system: SN12C renal

SMILES	TGI (IGROV1 ovarian)	TGI (RXF 393 renal)	TGI (MCF7 breast)	TGI (PC-3 prostate)	TGI (KM12 colon)	TGI (TK-10 renal)	TGI (MDA-N)	TGI (OVCAR-8 ovarian)	TGI (MALME-3M melanoma)	TGI (SN12C renal)
O=c1[nH]c2cc3cccnc3c(Cl)c2nc1C(F)(F)F	> 100 µM	> 100 µM	> 100 µM	> 100 µM	63.7 µM	> 100 µM	> 100 µM	> 100 µM	> 100 µM	> 100 µM
CN(C)CCOC(=O)c1ccc(N)cc1	74.9 µM	> 100 µM	> 100 µM	35.1 µM	> 100 µM	> 100 µM	> 100 µM	> 100 µM	> 100 µM	> 100 µM
Nc1ccc(-c2nc3cc(F)ccc3s2)cc1I	22.3 µM	31.3 µM	3.91 µM	> 100 µM	> 100 µM	21.1 µM	> 100 µM	42.4 µM	72.9 µM	> 69.8 µM
COc1cc(/C=C2\N=C(c3ccccc3)N(/N=C3\C(=O)Nc4ccccc43)C2=O)cc(OC)c1OC	> 100 µM	> 100 µM	> 100 µM	> 100 µM	> 100 µM	> 100 µM	> 100 µM	> 100 µM	> 100 µM	> 100 µM
S=c1nc2[nH]c3ccc(Br)cc3c2n[nH]1	> 100 µM	> 100 µM	44.4 µM	> 100 µM	> 100 µM	> 100 µM	30.7 µM	> 100 µM	> 100 µM	> 100 µM
